Molecular target: Endoplasmic reticulum aminopeptidase 2 (Homo sapiens, UniProt Q6P179)
Test: Activation of ERAP2 (unknown origin)-mediated Arg-AMC substrate hydrolysis after 60 mins by Rapidfire-MS analysis

Endoplasmic reticulum aminopeptidase 2, sequence (Q6P179 whole entry): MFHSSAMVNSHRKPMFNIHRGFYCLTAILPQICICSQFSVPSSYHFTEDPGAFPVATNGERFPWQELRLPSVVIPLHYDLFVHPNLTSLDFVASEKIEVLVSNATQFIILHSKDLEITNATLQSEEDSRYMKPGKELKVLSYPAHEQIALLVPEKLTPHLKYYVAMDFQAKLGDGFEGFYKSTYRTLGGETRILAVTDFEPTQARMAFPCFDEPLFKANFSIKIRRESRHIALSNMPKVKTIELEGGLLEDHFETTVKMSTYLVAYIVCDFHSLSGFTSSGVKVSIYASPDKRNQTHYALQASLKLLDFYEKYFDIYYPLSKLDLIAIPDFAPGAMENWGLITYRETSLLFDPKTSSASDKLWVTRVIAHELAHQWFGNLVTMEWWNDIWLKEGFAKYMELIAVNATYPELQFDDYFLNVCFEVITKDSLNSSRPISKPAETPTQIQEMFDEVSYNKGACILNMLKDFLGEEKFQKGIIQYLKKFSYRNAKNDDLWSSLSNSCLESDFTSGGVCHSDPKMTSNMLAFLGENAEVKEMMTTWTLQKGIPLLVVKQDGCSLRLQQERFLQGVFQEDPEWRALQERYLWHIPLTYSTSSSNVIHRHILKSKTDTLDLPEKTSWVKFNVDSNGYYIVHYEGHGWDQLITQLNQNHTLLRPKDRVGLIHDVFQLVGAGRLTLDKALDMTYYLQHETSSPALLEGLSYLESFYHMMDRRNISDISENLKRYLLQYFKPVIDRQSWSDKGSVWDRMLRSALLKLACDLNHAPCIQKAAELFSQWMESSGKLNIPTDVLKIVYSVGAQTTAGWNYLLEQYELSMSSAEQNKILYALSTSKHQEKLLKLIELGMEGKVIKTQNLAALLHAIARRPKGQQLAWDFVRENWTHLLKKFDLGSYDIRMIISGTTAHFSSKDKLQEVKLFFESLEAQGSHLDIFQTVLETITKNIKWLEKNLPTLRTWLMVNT

## C[C@@H]1C[C@H](O)[C@@]2(C)C(C(=O)O)=CCC[C@@H]2[C@@]1(C)CCc1ccoc1
  IC50: > 158 µM

Reference: ChEMBL document CHEMBL4354860, “Targeting the Regulatory Site of ER Aminopeptidase 1 Leads to the Discovery of a Natural Product Modulator of Antigen Presentation” (J Med Chem, 2020)
